The values below come from ChEMBL document CHEMBL4257475, “Identification of non-substrate-like glycosyltransferase inhibitors from library screening: pitfalls & hits” (Medchemcomm, 2018).

Experiment [1] has as its target T1, LgtC (Neisseria meningitidis) (UniProt Q93EK7).
T1 sequence (whole entry): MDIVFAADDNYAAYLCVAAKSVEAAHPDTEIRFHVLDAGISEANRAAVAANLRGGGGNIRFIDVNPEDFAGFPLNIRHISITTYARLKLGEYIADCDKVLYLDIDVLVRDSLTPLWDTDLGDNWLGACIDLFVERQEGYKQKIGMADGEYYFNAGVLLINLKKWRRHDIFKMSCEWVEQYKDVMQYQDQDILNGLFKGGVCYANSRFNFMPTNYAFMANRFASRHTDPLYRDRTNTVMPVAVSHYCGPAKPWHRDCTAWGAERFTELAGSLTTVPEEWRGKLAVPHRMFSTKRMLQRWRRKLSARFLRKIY
Description: Inhibition of Neisseria meningitidis LgtC at 50 uM using UDP-Gal donor substrate incubated for 20 mins by malachite green reagent based colorimetric method relative to control.

The target of experiment [2] is Intestinal-type alkaline phosphatase (Bos taurus) (UniProt P19111). As to the kind of experiment: Inhibition of calf intestinal phosphatase up to 100 uM using UDP as substrate measured after 20 mins by malachite green reagent based colorimetric method.
Sequence of Intestinal-type alkaline phosphatase (Bos taurus) (P19111 20-506 limits assumed): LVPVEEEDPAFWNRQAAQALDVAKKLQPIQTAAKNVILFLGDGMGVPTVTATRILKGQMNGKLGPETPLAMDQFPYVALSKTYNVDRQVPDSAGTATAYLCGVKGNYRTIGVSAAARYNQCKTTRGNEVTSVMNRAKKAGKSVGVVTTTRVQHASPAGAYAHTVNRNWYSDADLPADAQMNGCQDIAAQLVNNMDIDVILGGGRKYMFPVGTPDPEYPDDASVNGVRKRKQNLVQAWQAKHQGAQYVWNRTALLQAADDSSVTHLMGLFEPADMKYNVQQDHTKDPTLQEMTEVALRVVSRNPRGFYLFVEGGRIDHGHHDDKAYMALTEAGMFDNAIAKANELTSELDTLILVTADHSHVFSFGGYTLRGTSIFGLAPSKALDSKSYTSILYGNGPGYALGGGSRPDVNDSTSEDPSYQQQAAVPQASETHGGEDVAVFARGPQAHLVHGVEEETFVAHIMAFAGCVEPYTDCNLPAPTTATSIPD
A short description of experiment [3]: Effect on inorganic phosphate reaction with malachite green reagent at 1 mM after 20 mins by colorimetric method. The class given is functional.
In experiment [4] the target is T1, LgtC (Neisseria meningitidis). As to the kind of experiment: (§1) Inhibition of Neisseria meningitidis LgtC using UDP-Gal donor substrate incubated for 20 mins by malachite green reagent based colorimetric method.
Experiment [5] shares this target. Description: Inhibition of Neisseria meningitidis LgtC at 100 uM using UDP-Gal donor substrate incubated for 20 mins followed by 5 fold dilution by malachite green reagent based colorimetric method relative to control.
Experiment [6] has the same target. As to the kind of experiment: Inhibition of Neisseria meningitidis LgtC at 100 uM using UDP-Gal donor substrate incubated for 20 mins by malachite green reagent based colorimetric method relative to control.
For the next experiment, the target named is T2, LgtC (Neisseria meningitidis, UniProt Q93EK7).
T2 sequence (Q93EK7 whole entry): T1 sequence (whole entry)
The experiment is described as §1.

The next experiment relates to Pasteurella multocida. Description: Inhibition of recombinant Pasteurella multocida alpha-(2,3)-sialyltransferase expressed in Escherichia coli BL21 up to 100 uM using CMP-Neu5Ac donor substrate incubated for 20 mins by malachite reagent based colorimetric method.
Experiment [7] in a line: Effect on inorganic phosphate reaction with malachite green reagent up to 100 uM after 20 mins by colorimetric method. The class given is functional.
The target of experiment [8] is T3, Galactoside alpha-(1,2)-fucosyltransferase 2 (Homo sapiens) (UniProt Q10981).
T3 sequence (whole entry): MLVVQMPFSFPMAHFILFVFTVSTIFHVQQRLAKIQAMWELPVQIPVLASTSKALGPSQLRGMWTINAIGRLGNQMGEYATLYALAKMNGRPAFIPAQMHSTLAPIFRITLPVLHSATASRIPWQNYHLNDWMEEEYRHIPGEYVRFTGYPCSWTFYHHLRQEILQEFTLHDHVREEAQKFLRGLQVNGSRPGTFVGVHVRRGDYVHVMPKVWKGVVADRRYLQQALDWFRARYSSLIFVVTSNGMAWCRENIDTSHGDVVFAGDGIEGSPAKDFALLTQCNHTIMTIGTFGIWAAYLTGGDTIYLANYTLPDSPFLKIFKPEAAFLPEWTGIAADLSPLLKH
As to the kind of experiment: Inhibition of recombinant human C-terminal His6-tagged FUT2 (Ile35 to His343 residues) expressed in HEK293 cells at 100 uM using GDP-Fuc donor substrate measured after 20 mins by malachite green reagent based colorimetric method. The class given is cell-based.

Activity calls are given as the source filed them. The rule behind the calls is not given here.

As a reminder, the inhibition is the drop in the measured response relative to a control, in per cent. As for `CC1=NN(c2ccccc2)C(=O)/C1=C\c1ccncc1`, in experiment [1], the inhibition entry was “inactive”. As to `CC1=NN(c2ccccc2)C(=O)/C1=C\c1ccc(C)cc1`, in experiment [1], the inhibition entry is “inactive”. As to `CC1=NN(c2ccccc2)C(=O)/C1=C\c1cccc(OCc2ccccc2)c1`, in [1], the inhibition result is “inactive”.

As for `CC1=NN(c2ccccc2)C(=O)/C1=C\c1cccc([N+](=O)[O-])c1`, the inhibition result in [1] is “inactive”. `CC1=NN(c2ccccc2)C(=O)/C1=C\c1cccc(O)c1`: the inhibition entry in experiment [1] is “inactive”. Take `CCOC(=O)c1cccc(N2N=C(C)/C(=C/c3ccncc3)C2=O)c1`: in [1], the inhibition entry was “inactive”.

With `CC(=O)O[C@H]1C[C@@H]2CC[C@@H]3[C@H](CC[C@@]4(C)[C@H]3C[C@H]([N+]3(C)CCCCC3)[C@@H]4OC(C)=O)[C@@]2(C)C[C@@H]1N1CCCCC1`, the inhibition entry in experiment [2] was “Active”. The result in [3] was Active. The inhibition in experiment [1] was 34%; in experiment [4], “Dose-dependent effect”. For the compound `CC1=NN(c2ccccc2)C(=O)/C1=C\c1cccc(C)c1`, the inhibition entry in [1] is “inactive”. Turning to `CC1=NN(c2ccccc2)C(=O)/C1=C\c1ccc(S(C)(=O)=O)cc1`, in [1], the inhibition entry is “inactive”.

`CC1=NN(c2ccccc2)C(=O)/C1=C\c1cccnc1`: the inhibition result in experiment [1] is “inactive”. Same read-out and setting: to `COc1cc(/C=C2\C(=O)N(c3cccc(C(=O)O)c3)N=C2C)cc(OC)c1O` belongs “inactive”. Consider `CC(=O)O[C@H]1C[C@@H]2CC[C@@H]3[C@H](CC[C@@]4(C)[C@H]3C[C@H]([N+]3(C)CCCCC3)[C@@H]4OC(C)=O)[C@@]2(C)C[C@@H]1[N+]1(C)CCCCC1`, for which the inhibition result in [2] was “Active”. For the same compound, the result in [3] was Active. The inhibition in [1] was 38%; in experiment [4] it was “Dose-dependent effect”.

In the case of `CC1=NN(c2ccccc2)C(=O)/C1=C\c1ccccc1C(F)(F)F`, the inhibition in experiment [5] and in [6] was 60% each time.

Consider `CC1=NN(c2ccccc2)C(=O)/C1=C\c1ccccc1O`, for which the inhibition in experiment [1] worked out at 10%. The same measure, in the same setting: to `CCOC(=O)c1cccc(N2N=C(C)/C(=C/C3CCN(C(=O)OC(C)(C)C)CC3)C2=O)c1` belongs “inactive”; to `CC1=NN(c2ccccc2)C(=O)/C1=C\c1ccc(Cl)cc1`, “inactive”. What is called IC50 is the midpoint of a concentration-inhibition curve. Read a low IC50 as greater potency in that assay. In experiment [1], `CC1=NN(c2ccccc2)C(=O)/C1=C\c1ccccc1Cl` displayed an inhibition above 10%. This compound returned a half-maximal inhibitory concentration (IC50) on LgtC of 33 µM.

Consider `CC1=NN(c2ccccc2)C(=O)/C1=C\c1ccccc1C`, for which the inhibition result (in experiment [2]; in the experiment on Pasteurella multocida) was “inactive” throughout. In addition, the outcome in [7] was inactive. For the same compound, the inhibition is above 10% in experiment [1] and “Dose-dependent effect” in experiment [4]. Further, the midpoint of inhibition against LgtC, the IC50, lay at 30 µM. For the same compound, in experiment [8], the inhibition result is “Active”. Turning to `CC1=NN(c2ccccc2)C(=O)/C1=C\c1ccc(C#N)cc1`, the inhibition result in experiment [1] is “inactive”. As for `CC1=NN(c2ccccc2)C(=O)/C1=C\c1ccc(O)cc1`, in experiment [1], the inhibition entry was “inactive”. Same read-out and setting: next, `CC1=NN(c2ccccc2)C(=O)/C1=C\c1cc(C(F)(F)F)ccc1C(F)(F)F`: “inactive”. On to `COc1ccc2occ(/C=C3\C(=O)N(c4cccc(C(=O)O)c4)N=C3C)c(=O)c2c1`, for which the inhibition result in experiment [1] was “inactive”. For the compound `CC1=NN(c2ccccc2)C(=O)/C1=C\c1ccco1`, the inhibition result in experiment [1] was “inactive”.
